Source: patent publication US8946291B2, “Compositions and methods for treating pigmentary conditions and melanoma” (The United States of America, as represented by the …, priority 2008, dated 2015)

Key:
SOX9 [1] = assay: SOX9 protein expression in normal human melanocytes (metabolic labeling, immunoblotting, immunocytochemistry); format: cell-based; settings: for SOX9 regulation in human melanocytes: statement in the discussion
Experimental: Cultures in 100 mm dishes were solubilized in […] mammalian protein extraction reagent (Pierce Biotechnology, Rockford, Ill., USA) and Protease Inhibitor cocktail (Roche, Mannheim, Germany). Protein concentrations of extracts were measured using the BCA protein assay kit (Pierce, Rockford, Ill., USA). Cell extracts (20 μg) were separated on 8-16% gradient SDS polyacrylamide gels (Invitrogen). After electrophoresis, proteins were transferred electrophoretically from the gels to Invitrolon PVDF transfer membranes (Invitrogen). The filters were incubated with antibodies to SOX9 (rabbit 1:500; Abeam, Cambridge, UK), SOX10 (goat 1:200; Santa Cruz, Santa Cruz, Calif., USA), DCT (1:2,000; (22)), Tyrosinase (rabbit 1:10,000; (22)), or GAPDH (rabbit 1:10,000, Santa Cruz) for 1 h at 23° C. to overnight at 4° C. (depending on the antibody) and were then incubated with horseradish peroxidase-linked anti-rabbit, anti-mouse or anti-goat whole antibodies (at 1:1,0000, GE Healthcare, Buckinghamshire, UK) at room temperature for 1 h. Antigens were detected using ECL-plus Western Blotting Detection System (GE Healthcare). Blots were quantitated using Scion Image Software (Scion Corp., Frederick, Md., USA). Each experiment was performed at least in triplicate.
Melanocyte cultures in two well Lab-Tek chamber slides (Nalge Nune International Corp., Naperville, Ill., USA) were processed for indirect fluorescence to detect the expression of proteins using primary antibodies to SOX9 (rabbit 1:50, Abcam), MITF-ab3 (mouse 1:100 dilution; NeoMarkers, Fremont, Calif., USA), DCT (rabbit 1:7,500; (22)) and Tyrosinase (rabbit 1:700; (22)). Bound antibodies were visualized with appropriate secondary antibodies, Alexa Fluor® 488 goat anti-rabbit IgG (H+L) (Molecular Probes, Inc., Eugene, Oreg., USA), Alexa Fluor® 594 mouse anti-rabbit IgG (H+L) (Molecular Probes), Alexa Fluor® 488 goat anti-mouse IgG (H+L) (Molecular Probes) or Alexa Fluor® 594 goat anti-mouse IgG (H+L) (Molecular Probes) at 37° C. for 30 min at 1:500 dilution with 5% goat serum. DAPI (Vector, Burlingame, Calif.; USA) was used as a counter-stain. The green fluorescence produced by Alexa 488®, red produced by Alexa 594®, and blue by DAPI was observed and captured using a Leica DMR B/D MLD fluorescence microscope (Leica, Wetzlar, Germany) and a Dage-MTI 3CCD 3-chip color video camera (Dage-MTI, Michigan City, Ind., USA).
Radioactive metabolic labeling and immunoprecipitation was performed as described previously (58). Where indicated, cells were irradiated with 21 mJ/cm^2 UVB and/or chemical agents were added from the “pulse” period to the “chase” period. Cell extracts were incubated with normal rabbit serum (Vector, Burlingame, Calif., USA) and were then incubated with protein G beads (GE Healthcare). The supernatants were incubated with SOX9 (Abcam) or GAPDH (Santa-Cruz) antibodies. The immune-complexes were separated by incubation with beads and were further washed with immunoprecipitate lysis buffer. The pellets were eluted, electrophoresed and visualized by autoradiography.

SOX9 [2] = assay: SOX9 expression in A375 cells (S35 labeling and immunoprecipitation / immunoblotting); format: cell-based, human; settings: A375 cells treated with PGD2 for 72 h
Experimental: (§1) SOX9 has been extensively studied in chondrocytes due to its key role for collagen II synthesis. […] First, S35 labeling was performed on A375 cells treated or not treated with PGD2 for 72 h. Proteins were then extracted and immunoprecipitated with SOX9 and PRAME antibodies (GAPDH was used as a control). SOX9 was increased after treatment with PGD2 whereas PRAME was decreased (FIG. 3B). […] A further proliferation assay with or without RA treatment, using PGD2 instead of the transfection with SOX9, was performed.
(§2) Cells were solubilized in M-PER® mammalian protein extraction reagent (Pierce Biotechnology, Rockford, Ill., USA) containing Protease Inhibitor cocktail (Roche, Mannheim, Germany). Protein concentrations of extracts were measured using the BCA protein assay kit (Pierce, Rockford, Ill., USA). Cell extracts (30 μg) were separated on SDS polyacrylamide gels (Invitrogen). After electrophoresis, proteins were transferred electrophoretically from the gels to Invitrolon PVDF transfer membranes (Invitrogen). […] Antigens were detected using ECL-plus Western Blotting Detection System (GE Healthcare). […]

SOX9 [3] = settings: by promoting phosphorylation and nuclear translocation, literature (13); cited from earlier work
A375 cells = assay: Proliferation assay (crystal violet) in A375 melanoma cells; format: cell-based, human
Experimental: B16/F10 melanoma cells, SKMel 28 and A375 cells were obtained from the ATCC (Manassas, Va., USA). Mel Juso cells are a generous gift from Dr. Hornyak at the National Cancer Institute. A375, SK Mel 28 and B16 cells were grown at 37° C. under 5% CO2 in DMEM supplemented with 7% Fetal Bovine Serum (FBS) and penicillin (100 U/ml) and streptomycin (50 ug/ml). Mel Juso cells were grown at 37° C. under 5% CO2 in RPMI medium supplemented with 10% FBS and penicillin (100 U/ml) and streptomycin (50 ug/ml). Retinoic acid (10^−7M) and Prostaglandin D2 (0.5 ug/ml) were purchased from Sigma-Aldrich (St-Louis, Mo., USA).
The cells were transfected with a pBabe vector to give them a resistance to puromycin. At the same time, they were transfected with SOX9 cDNA or empty vector as control. Depending on the experiment, cells were also transfected the day after with SiRNA p21 or SiRNA Mock. After 10 to 15 d, the clones were fixed and stained with crystal violet. Proliferation was measured according to the optical density of the color.

PRAME = PRAME expression in melanoma cells (immunoprecipitation / immunoblotting); format: cell-based, human; settings: A375 cells treated with PGD2 for 72 h
Experimental: as §1, §2

melanoma cells = settings: literature (14-17); cited from earlier work
DCT promoter = assay: Luciferase assay of DCT promoter in HeLa cells; format: cell-based, human; settings: forskolin (data not shown)
Experimental: (§3) B16 melanoma cells or HeLa cells were seeded in 24-well dishes and were transfected with 0.3 μg of the luciferase reporter plasmid and 0.05 μg of pCMVβGal (Promega, Madison, Wis., USA) to control the variability of transfection efficiency. In some experiments, SOX9 was over-expressed using 0.1 μg of the pcDNA3 encoding SOX9, or was silenced with SOX9 siRNA (100 nM). Empty pcDNA3 or siRNA scrambles were used as controls depending on the experiments. All transfections were made with Lipofectamine (Invitrogen) according to the instructions of the manufacturer. Thirty-six h later, cells were washed with a saline phosphate buffer and lysed with reporter lysis buffer (Promega). Soluble extracts were harvested and assayed for luciferase and β-galactosidase activities. All transfections were repeated at least 3 times using different plasmid preparations and gave similar results. The pMITF wild-type and mutants, pDCT, pTYR, and pCRE constructs used were described previously (26, 43, 59).

TYR promoter = assay: Luciferase assay of TYR promoter in HeLa cells; format: cell-based, human; settings: forskolin (data not shown)
Experimental: as §3

[4] = system: mouse melanocytes, melanoma cells, NHM; settings: literature (38-40); cited from earlier work
SOX9 [5] = assay: SOX9 mRNA expression in normal human melanocytes by RT-PCR; format: cell-based; settings: n-MP NHM, 4 h after ASP treatment
From the text: Total RNA was reverse-transcribed using SuperScript III (Invitrogen). PCR reactions consisted of 25 cycles for β-actin and 35 cycles for SOX9 using Taq DNA polymerase (Invitrogen). PCR products for β-actin and SOX9 were 838 bp, and 288 bp, respectively, and were electrophoresed in parallel with DNA molecular mass markers (Invitrogen). Oligonucleotide primers used for PCR were based on mRNA sequences as follows: human SOX9 sense primer 5′-[…]-3′ (SEQ ID NO:5); human SOX9 antisense primer 5′-[…]-3′ (SEQ ID NO:6), β-actin sense primer 5′-[…]-3′ (SEQ ID NO:7); β-actin antisense primer 5′-[…]-3′ (SEQ ID NO:8). Each experiment was repeated at least in triplicate independently.

[6] = NHM, 21 mJ/cm^2 UVB, pretreatment with H89

## O=S(=O)(NCCNC/C=C/c1ccc(Br)cc1)c1cccc2cnccc12 [H89]
SOX9 [1]; [6]
  UVB-induced expression of SOX9: prevented the increased expression
  UVB-induced expression of SOX9 phosphorylated at serine 181: prevented the increased expression

## CCCCC[C@H](O)/C=C/[C@H]1C(=O)C[C@H](O)[C@@H]1C/C=C\CCCC(=O)O [PGD2, prostaglandin D2]
SOX9 [2]
  SOX9 expression: increased
SOX9 [3]
  SOX9 activity in chondrocytes: increase SOX9 activity
A375 cells; PGD2 0.5 μg/μl alone
  proliferation of A375 cells: inhibited
PRAME
  PRAME expression: decreased
Melanoma cells
  proliferation of melanoma cells and other cancer cells: decrease the proliferation

## CC1=C(/C=C/C(C)=C/C=C/C(C)=C/C(=O)O)C(C)(C)CCC1 [RA, retinoic acid]
A375 cells; RA 10^−7 M alone
  proliferation of A375 cells: no effect

## C=C[C@@]1(C)CC(=O)[C@]2(O)[C@@]3(C)[C@@H](O)CCC(C)(C)[C@@H]3[C@H](O)[C@H](OC(C)=O)[C@@]2(C)O1 [forskolin]
DCT promoter
  DCT promoter activity: no effect
TYR promoter
  TYR promoter activity: no effect

## Δ2-PGJ2
Melanoma cells
  proliferation of melanoma cells and other cancer cells: decrease the proliferation

## αMSH
SOX9 [1]
  SOX9 regulation in human melanocytes: up-regulated

B1: ASP: recombinant mouse protein, antagonist of the melanocortin I receptor (MC1R) (protein, UniProt Q03288 23-131, looked up)
Agouti-signaling protein: HLALEETLGDDRSLRSNSSMNSLDFSSVSIVALNKKSKKISRKEAEKRKRSSKKKASMKKVARPPPPSPCVATRDSCKPPAPACCDPCASCQCRFFGSACTCRVLNPNC
SOX9 [1]; n-MP NHM treated 48 h with ASP
  SOX9 expression (immunoblotting): significantly decreased
SOX9 [1]
  SOX9 regulation in human melanocytes: down-regulated
[4]
  melanin formation: inhibits melanin formation
SOX9 [5]
  expression level of SOX9 (RT-PCR): decreased
